The target in the experiment is T1, DNA-PK kinase (Homo sapiens, UniProt P78527).
T1 construct: purchased Promega V4107
The experiment can be described thus: Inhibition assay of DNA-PK kinase (Promega kit, ADP-Glo chemiluminescence). In kind it is biochemical. The note with it: 50 µM ATP, 37° C., 60 min; read-out: IC50 (nM), inhibitory activity on DNA-PK kinase. The method, then: The inhibitory activity of the compounds on DNA-PK kinase was measured by using a DNA-PK kinase assay kit (purchased from Promega, Cat.#: V4107, Lot: 0000366495). The results were quantified by chemiluminescence, and the detailed experimental protocol was as follows: • i. An ADP-fluorescence standard curve over a range of concentrations was plotted according to the kit instructions; • ii. […] The mixtures were mixed well, centrifuged (1000 rpm, 30 s), and incubated at 37° C. for 60 min; • iv. 5 µL of ADP-Glo™ Reagent was added to stop the reaction, which was then mixed well, centrifuged (1000 rpm, 30 s), and incubated at room temperature for 40 min; • v. 10 µL Kinase Detection Reagent was added, and the mixture was mixed well by shaking, centrifuged (1000 rpm, 30 s), and incubated at room temperature for 30 min; • vi. The […] was measured by using a microplate reader (Thermo fisher, Varioskan LUX).

What is called IC50 is the concentration that inhibits the measured activity by half.

Each structure is given as a SMILES string.

For `Cc1cc(C(N)=O)c(F)cc1Nc1ncc2c(n1)n(C13CCC(C#N)(CC1)CC3)c(=O)n2C` [Compound 90, 4-((9-(4-cyanobicyclo[2.2.2]octan-1-yl)-7-methyl-8-oxo-8,9-dihydro-7H-purin-2-yl)amino)-2-fluoro-5-methylbenzamide], the IC50 stood at 10.8 nM.
On to `Cc1ccc(C#N)cc1Nc1ncc2c(n1)n(C1CCOCC1)c(=O)n2C` [Compound 15, 4-Methyl-3-((7-methyl-8-oxo-9-(tetrahydro-2H-pyran-4-yl)-8,9-dihydro-7H-purin-2-yl)amino)benzonitrile], for which the IC50 came to 5.28 nM.
As for `Cc1cc(C(=O)O)c(C#N)cc1Nc1ncc2c(n1)n(C1CCOCC1)c(=O)n2C` [Compound 46, 2-cyano-5-methyl-4-((7-methyl-8-oxo-9-(tetrahydro-2H-pyran-4-yl)-8,9-dihydro-7H-purin-2-yl)amino)benzoic acid], the IC50 is 0.99 nM.
As for `Cc1cc(=O)n(C)cc1Nc1ncc2c(n1)n(C1CCOCC1)c(=O)n2C` [Compound 56, 2-((1,4-Dimethyl-6-oxo-1,6-dihydropyridin-3-yl)amino)-7-methyl-9-(tetrahydro-2H-pyran-4-yl)-7,9-dihydro-8H-purin-8-one], the IC50 was found to be 14.3 nM.
In the case of `Cc1cc(C#N)ncc1Nc1ncc2c(n1)n(C1CCOCC1)c(=O)n2C` [Compound 17, 4-Methyl-5-((7-methyl-8-oxo-9-(tetrahydro-2H-pyran-4-yl)-8,9-dihydro-7H-purin-2-yl)amino)picolinonitrile], the IC50 amounted to 28.7 nM.
Next, `Cc1cc(C(N)=O)c(F)cc1Nc1ncc2c(n1)n(C1CC3(COC3)C1)c(=O)n2C` [Compound 89, 2-Fluoro-5-methyl-4-((7-methyl-8-oxo-9-(2-oxaspiro[3.3]heptan-6-yl)-8,9-dihydro-7H-purin-2-yl)amino)benzamide]: 3.83 nM; `Cc1cc(C#N)ccc1Nc1ncc2c(n1)n(C1CC3CC(O)CC3C1)c(=O)n2C` (centres unmarked) [Compound 98, 4-[(9-(5-hydroxy-octahydropentalen-2-yl)-7-methyl-8-oxo-8,9-dihydro-7H-purin-2-yl)amino]-3-methylbenzonitrile]: 4.01 nM; `Cc1cc(C(N)=O)c(C#N)cc1Nc1ncc2c(n1)n(C1CCOCC1)c(=O)n2C` [Compound 47, 2-cyano-5-methyl-4-((7-methyl-8-oxo-9-(tetrahydro-2H-pyran-4-yl)-8,9-dihydro-7H-purin-2-yl)amino)benzamide]: 3.69 nM.
For the compound `[2H]C([2H])([2H])C([2H])([2H])n1c(=O)n(C2CCOCC2)c2nc(Nc3cc(F)c(C(N)=O)cc3C)ncc21` [Compound 105, 4-((7-(ethyl-d5)-8-oxo-9-(tetrahydro-2H-pyran-4-yl)-8,9-dihydro-7H-purin-2-yl)amino)-2-fluoro-5-methylbenzamide], the IC50 is 5.54 nM.
Turning to `Cc1cc(C#N)ccc1Nc1ncc2c(n1)n(C1CC3COCC3C1)c(=O)n2C` (centres unmarked) [Compound 100, 4-((9-(hexahydro-1H-cyclopenta[c]furan-5-yl)-7-methyl-8-oxo-8,9-dihydro-7H-purin-2-yl)amino)-3-methylbenzonitrile], the IC50 was determined as 2.2 nM.
For `CCn1c(=O)n([C@H]2CCOC2)c2nc(Nc3cc(F)c(C(N)=O)cc3C)ncc21` [Compound 107, (S)((7-Ethyl-8-oxo-9-(tetrahydrofuran-3-yl)-8,9-dihydro-7H-purin-2-yl)amino)-2-fluoro-5-methylbenzamide], the IC50 turned out to be 10.1 nM.
Consider `Cc1cc(S(C)(=O)=O)ccc1Nc1ncc2c(n1)n(C1CCOCC1)c(=O)n2C` [Compound 1, 7-Methyl-2-((2-methyl-4-(methylsulfonyl)phenyl)amino)-9-(tetrahydro-2H-pyran-4-yl)-7,9-dihydro-8H-purin-8-one], for which the IC50 amounted to 10.1 nM.
As for `Cc1cc(C(N)=O)c(O)cc1Nc1ncc2c(n1)n(C1CCOCC1)c(=O)n2C` [Compound 50, 2-Hydroxy-5-methyl-4-((7-methyl-8-oxo-9-(tetrahydro-2H-pyran-4-yl)-8,9-dihydro-7H-purin-2-yl)amino)benzamide], the IC50 came to 12.7 nM.
`Cc1cc(C(N)=O)c(F)cc1Nc1ncc2c(n1)n(C1CCC(CO)OC1)c(=O)n2C` (centres unmarked) [Compound 96, 2-Fluoro-4-((9-(6-(hydroxymethyl)tetrahydro-2H-pyran-3-yl)-7-methyl-8-oxo-8,9-dihydro-7H-purin-2-yl)amino)-5-methylbenzamide]: the IC50 was found to be 3.89 nM.
Next, `Cc1cc(C(N)=O)c(F)cc1Nc1ncc2c(n1)n(C1CCC3(CC1)COC3)c(=O)n2C` [Compound 86, 2-Fluoro-5-methyl-4-((7-methyl-8-oxo-9-(2-oxaspiro[3.5]nonan-7-yl)-8,9-dihydro-7H-purin-2-yl)amino)benzamide]: 0.44 nM; `Cc1cc(C(N)=O)c(F)cc1Nc1ncc2c(n1)n(C1CCCC(C)(O)C1)c(=O)n2C` (centres unmarked) [Compound 91, 2-Fluoro-4-((9-(3-hydroxy-3-methylcyclohexyl)-7-methyl-8-oxo-8,9-dihydro-7H-purin-2-yl)amino)-5-methylbenzamide]: 2.44 nM; `Cc1cc(C(N)=O)c(F)cc1Nc1ncc2c(n1)n(C1CCOCC1)c(=O)n2C(C)C` [Compound 63, 2-Fluoro-4-((7-isopropyl-8-oxo-9-(tetrahydro-2H-pyran-4-yl)-8,9-dihydro-7H-purin-2-yl)amino)-5-methylbenzamide]: 50.5 nM.
As for `COC(=O)c1cc(C)c(Nc2ncc3c(n2)n(C2CCOCC2)c(=O)n3C)cc1C#N` [Compound 45], the IC50 was determined as 13.5 nM.
For the compound `Cc1cc(C(N)=O)c(F)cc1Nc1ncc2c(n1)n(C1CCCCC1)c(=O)n2C` [Compound 68, 4-((9-cyclohexyl-7-methyl-8-oxo-8,9-dihydro-7H-purin-2-yl)amino)-2-fluoro-5-methylbenzamide], the IC50 is 0.01 nM.
`Cn1c(=O)n(C2CCOCC2)c2nc(Nc3cc(F)c(C(N)=O)cc3Cl)ncc21` [Compound 59, 5-Chloro-2-fluoro-4-((7-methyl-8-oxo-9-(tetrahydro-2H-pyran-4-yl)-8,9-dihydro-7H-purin-2-yl)amino)benzamide]: the IC50 stood at 12.1 nM.
Regarding `Cc1cc(C(N)=O)c(F)cc1Nc1ncc2c(n1)n(C1C[C@@H]3COC[C@H]3C1)c(=O)n2C` [Compound 99, 2-fluoro-4-((9-((3aS,6aS)-hexahydro-1H-cyclopenta[c]furan-5-yl)-7-methyl-8-oxo-8,9-dihydro-7H-purin-2-yl)amino)-5-methylbenzamide], the concentration for half-maximal inhibition (IC50) worked out at 2.13 nM.
Next, `Cc1cc(C(N)=O)c(F)cc1Nc1ncc2c(n1)n(C1CCOCC1)c(=O)n2CCF` [Compound 109, 2-Fluoro-4-((7-(2-fluoroethyl)-8-oxo-9-(tetrahydro-2H-pyran-4-yl)-8,9-dihydro-7H-purin-2-yl)amino)-5-methylbenzamide]: 5.54 nM.
Turning to `Cc1[nH]c(=O)ccc1Nc1ncc2c(n1)n(C1CCOCC1)c(=O)n2C` [Compound 40], the IC50 came to 39.2 nM.
As to `Cc1cc(Cl)ccc1Nc1ncc2c(n1)n(C1CCOCC1)c(=O)n2C` [Compound 4, 2-((4-chloro-2-methylphenyl)amino)-7-methyl-9-(tetrahydro-2H-pyran-4-yl)-7,9-dihydro-8H-purin-8-one], the IC50 was 8.3 nM.
In the case of `Cc1cc(C(N)=O)c(F)cc1Nc1ncc2c(n1)n(C1CCCC(O)C1)c(=O)n2C` (centres unmarked) [Compound 95, 2-Fluoro-4-((9-(-3-hydroxycyclohexyl)-7-methyl-8-oxo-8,9-dihydro-7H-purin-2-yl)amino)-5-methylbenzamide], the concentration for half-maximal inhibition (IC50) was determined as 0.6 nM.
Next, `Cc1sc(C#N)cc1Nc1ncc2c(n1)n(C1CCOCC1)c(=O)n2C` [Compound 43, 5-Methyl-4-((7-methyl-8-oxo-9-(tetrahydro-2H-pyran-4-yl)-8,9-dihydro-7H-purin-2-yl)amino)thiophene-2-carbonitrile]: 9.8 nM.
Next, `Cc1cc(C(N)=O)c(F)cc1Nc1ncc2c(n1)n([C@H]1C[C@@H](O)C1)c(=O)n2C` [Compound 94, 2-Fluoro-4-((9-(cis-3-hydroxycyclobutyl)-7-methyl-8-oxo-8,9-dihydro-7H-purin-2-yl)amino)-5-methylbenzamide]: 7.2 nM; `COC(=O)c1cc(Nc2ncc3c(n2)n(C2CCOCC2)c(=O)n3C)c(C)s1` [Compound 22]: 1.36 nM; `[2H]C([2H])([2H])NC(=O)c1cc(C)c(Nc2ncc3c(n2)n(C2CCOCC2)c(=O)n3C)cc1F` [Compound 37, 2-Fluoro-5-methyl-N-(methyl-d3)-4-((7-methyl-8-oxo-9-(tetrahydro-2H-pyran-4-yl)-8,9-dihydro-7H-purin-2-yl)amino)benzamide]: 11.9 nM.
Take `CO[C@H]1CC[C@H](n2c(=O)n(C)c3cnc(Nc4cc(F)c(C(N)=O)cc4C)nc32)CC1` [Compound 71, 2-Fluoro-4-((9-(trans-4-methoxycyclohexyl)-7-methyl-8-oxo-8,9-dihydro-7H-purin-2-yl)amino)-5-methylbenzamide]: the IC50 is 2.17 nM.
As to `Cc1cc(C(N)=O)c(F)cc1Nc1ncc2c(n1)n(C1CCC(C)(C#N)CC1)c(=O)n2C` (centres unmarked) [Compound 92, 4-((9-(4-cyano-4-methylcyclohexyl)-7-methyl-8-oxo-8,9-dihydro-7H-purin-2-yl)amino)-2-fluoro-5-methylbenzamide], the half-maximal inhibitory concentration (IC50) is 0.02 nM.
Take `Cc1cc(C(N)=O)c(F)cc1Nc1ncc2c(n1)n(C1CCOCC1)c(=O)n2C1CC1` [Compound 64, 4-((7-cyclopropyl-8-oxo-9-(tetrahydro-2H-pyran-4-yl)-8,9-dihydro-7H-purin-2-yl)amino)-2-fluoro-5-methylbenzamide]: the half-maximal inhibitory concentration (IC50) amounted to 3.34 nM.

(Values after US20230165867A1 (CHENGDU BAIYU PHARMACEUTICAL CO., LTD., priority 2020, published 2023).)
